Assay results reported in patent US9695155B2, “Herbicidal substituted pyrimidinyloxy benzene compounds” (E. I. DU PONT DE NEMOURS AND COMPANY, priority 2013, dated 2017).

Experiments:
kochia = assay: Test A preemergence; type: in vivo, Kochia scoparia; settings: 0 to 100 scale where 0 is no effect and 100 is complete control
Outline: (§1)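 Visual injury scored 0–100 (100 = complete control) against untreated controls about 10 days after treatment in a greenhouse. Test chemicals, formulated with surfactant in non-phytotoxic solvent, were sprayed on soil preemergence or on 2-10 cm, one- to two-leaf plants postemergence.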

ragweed = assay: Test A preemergence; type: in vivo, Ambrosia elatior; settings: 0 to 100 scale where 0 is no effect and 100 is complete control
Outline: as §1

Italian ryegrass [1] = assay: Test A preemergence; type: in vivo, Lolium multiflorum; settings: 0 to 100 scale where 0 is no effect and 100 is complete control
Outline: as §1

barnyardgrass [2] = assay: Test A postemergence; type: in vivo, Echinochloa crus-galli
Outline: as §1

corn [3] = assay: Test A postemergence; type: in vivo, Zea mays; settings: for plant injury at 125 g/ha: 125 g ai/ha, read-out: Corn plant response rating
Outline: as §1

rice = assay: Test B flooded paddy test; type: in vivo, Oryza sativa; settings: Oryza sativa; Flood, 250 g ai/ha; 0 to 100 scale where 0 is no effect and 100 is complete control; read-out: Plant response rating, Rice
Outline: (§2)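 Evaluation is visual, against untreated controls, 13 to 15 days after treatment. Before treatment, plants reached the 2-leaf stage; pots were then flooded 3 cm deep, compound was added to the water, and that level was maintained. Ratings run 0 to 100, with 100 meaning complete control.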

Heteranthera limosa = assay: Test B flooded paddy test; type: in vivo; settings: Heteranthera limosa, Flood, 250 g ai/ha; 0 to 100 scale where 0 is no effect and 100 is complete control; read-out: Plant response rating, Ducksalad
Outline: as §2

barnyardgrass [4] = assay: Test B flooded paddy test; type: in vivo, Echinochloa crus-galli; settings: Echinochloa crus-galli; Flood, 250 g ai/ha; 0 to 100 scale where 0 is no effect and 100 is complete control; read-out: Plant response rating, Barnyardgrass
Outline: as §2

galium [5] = assay: Test C preemergence; type: in vivo, Galium aparine; settings: Galium, pre-emergence; for pest or weed control at 16 g/ha: 16 g ai/ha, scale 0 to 100 (0 no effect, 100 complete control); for pest or weed control at 16 g/ha / pest or weed control at 62 g/ha / pest or weed control at 125 g/ha: preemergence, read-out: Galium plant response rating; for pest or weed control at 62 g/ha: 62 g ai/ha; for pest or weed control at 62 g/ha / pest or weed control at 125 g/ha: scale 0 (no effect) to 100 (complete control); for pest or weed control at 125 g/ha: 125 g ai/ha; for pest or weed control at 31 g/ha: Preemergence, 31 g ai/ha, scale 0 to 100, 0 no effect, 100 complete control, read-out: Plant response rating, Galium
Outline: (§3)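 Plants were kept under greenhouse conditions for 13–15 days following spray. Pre-emergent application went to soil (loam–sand), post-emergent to foliage at 1–4 leaves. Evaluation: visual, percent control against untreated checks.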

corn [6] = assay: Test C preemergence; type: in vivo, Zea mays; settings: Zea mays, pre-emergence; for plant injury at 16 g/ha: 16 g ai/ha, scale 0 to 100 (0 no effect, 100 complete control); for plant injury at 16 g/ha / plant injury at 62 g/ha / plant injury at 125 g/ha: preemergence, read-out: Corn plant response rating; for plant injury at 62 g/ha: 62 g ai/ha; for plant injury at 62 g/ha / plant injury at 125 g/ha: scale 0 (no effect) to 100 (complete control); for plant injury at 125 g/ha: 125 g ai/ha; for Corn plant response rating (crop injury, 0 = no effect, 100 = complete kill) at 31 g/ha: Preemergence, 31 g ai/ha, scale 0 to 100, 0 no effect, 100 complete control
Outline: as §3

Italian ryegrass [7] = assay: Test C postemergence; type: in vivo, Lolium multiflorum; settings: Lolium multiflorum, post-emergence; for pest or weed control at 16 g/ha: 16 g ai/ha, 0 is no effect, 100 is complete control, read-out: Plant response rating (0 to 100), Ryegrass, Italian; for pest or weed control at 16 g/ha / pest or weed control at 125 g/ha: postemergence; for pest or weed control at 125 g/ha: 125 g ai/ha, visual rating; for pest or weed control at 125 g/ha / pest or weed control at 62 g/ha: scale 0 to 100 (0 no effect, 100 complete control), read-out: Plant response rating, Ryegrass, Italian; for pest or weed control at 62 g/ha: Postemergence, 62 g ai/ha
Outline: as §3

galium [8] = assay: Test C postemergence; type: in vivo, Galium aparine; settings: Galium, post-emergence; for pest or weed control at 16 g/ha: 16 g ai/ha, 0 is no effect, 100 is complete control, read-out: Plant response rating (0 to 100), Galium; for pest or weed control at 16 g/ha / pest or weed control at 125 g/ha: postemergence; for pest or weed control at 125 g/ha: 125 g ai/ha, visual rating; for pest or weed control at 125 g/ha / pest or weed control at 62 g/ha: scale 0 to 100 (0 no effect, 100 complete control), read-out: Plant response rating, Galium; for pest or weed control at 62 g/ha: Postemergence, 62 g ai/ha
Outline: as §3

corn [9] = assay: Test C postemergence; type: in vivo, Zea mays; settings: Zea mays, post-emergence; for plant injury at 16 g/ha: 16 g ai/ha, 0 is no effect, 100 is complete control, read-out: Plant response rating (0 to 100), Corn; for plant injury at 16 g/ha / Corn plant response rating (crop injury, 0 = no effect, 100 = complete kill) at 125 g/ha: postemergence; for Corn plant response rating (crop injury, 0 = no effect, 100 = complete kill) at 125 g/ha: 125 g ai/ha, visual rating; for Corn plant response rating (crop injury, 0 = no effect, 100 = complete kill) at 125 g/ha / Corn plant response rating (crop injury, 0 = no effect, 100 = complete kill) at 62 g/ha: scale 0 to 100 (0 no effect, 100 complete control); for Corn plant response rating (crop injury, 0 = no effect, 100 = complete kill) at 62 g/ha: Postemergence, 62 g ai/ha
Outline: as §3

lambsquarters = assay: Test C postemergence; type: in vivo, Chenopodium album; settings: Chenopodium album, post-emergence; for pest or weed control at 16 g/ha: 16 g ai/ha, 0 is no effect, 100 is complete control, read-out: Plant response rating (0 to 100), Lambsquarters; for pest or weed control at 16 g/ha / pest or weed control at 125 g/ha: postemergence; for pest or weed control at 125 g/ha: 125 g ai/ha, visual rating; for pest or weed control at 125 g/ha / pest or weed control at 62 g/ha: scale 0 to 100 (0 no effect, 100 complete control), read-out: Plant response rating, Lambsquarters; for pest or weed control at 62 g/ha: Postemergence, 62 g ai/ha
Outline: as §3

pigweed = assay: Test C postemergence; type: in vivo, Amaranthus retroflexus; settings: Amaranthus retroflexus, post-emergence; for pest or weed control at 16 g/ha: 16 g ai/ha, 0 is no effect, 100 is complete control, read-out: Plant response rating (0 to 100), Pigweed; for pest or weed control at 16 g/ha / pest or weed control at 125 g/ha: postemergence; for pest or weed control at 125 g/ha: 125 g ai/ha, visual rating; for pest or weed control at 125 g/ha / pest or weed control at 62 g/ha: scale 0 to 100 (0 no effect, 100 complete control), read-out: Plant response rating, Pigweed; for pest or weed control at 62 g/ha: Postemergence, 62 g ai/ha
Outline: as §3

waterhemp = assay: Test C postemergence; type: in vivo, Amaranthus rudis; settings: Amaranthus tuberculatus, post-emergence; for pest or weed control at 16 g/ha: 16 g ai/ha, 0 is no effect, 100 is complete control, read-out: Plant response rating (0 to 100), Waterhemp; for pest or weed control at 16 g/ha / pest or weed control at 125 g/ha: postemergence; for pest or weed control at 125 g/ha: 125 g ai/ha, visual rating; for pest or weed control at 125 g/ha / pest or weed control at 62 g/ha: scale 0 to 100 (0 no effect, 100 complete control), read-out: Plant response rating, Waterhemp; for pest or weed control at 62 g/ha: Postemergence, 62 g ai/ha
Outline: as §3

[10] = 500 g ai/ha, 0 to 100 scale where 0 is no effect and 100 is complete control
[11] = Zea mays, post-emergence, 240 h, 0 to 100 scale where 0 is no effect and 100 is complete control
[12] = 31 g ai/ha, visual, approximately 10 days

Row | Structure (SMILES) | Plant response rating, Kochia (kochia; 125 g ai/ha) | Plant response rating, Ragweed (ragweed; 125 g ai/ha) | Plant response rating, Ryegrass, Italian (Italian ryegrass [1]; 125 g ai/ha) | plant injury at 125 g/ha (corn [3]; [11]) [%] | plant injury at 250 g/ha (rice) [%] | pest or weed control at 250 g/ha (Heteranthera limosa) [%] | pest or weed control at 250 g/ha (barnyardgrass [4]) [%] | pest or weed control at 16 g/ha (galium [5]) [%] | pest or weed control at 62 g/ha (galium [5]) [%] | pest or weed control at 125 g/ha (galium [5]) [%] | pest or weed control at 31 g/ha (galium [5]) [%] | plant injury at 16 g/ha (corn [6]) [%] | plant injury at 62 g/ha (corn [6]) [%] | plant injury at 125 g/ha (corn [6]) [%] | Corn plant response rating (crop injury, 0 = no effect, 100 = complete kill) at 31 g/ha (corn [6]) [%] | pest or weed control at 16 g/ha (Italian ryegrass [7]) [%] | pest or weed control at 125 g/ha (Italian ryegrass [7]) [%] | pest or weed control at 62 g/ha (Italian ryegrass [7]) [%] | pest or weed control at 16 g/ha (galium [8]) [%] | pest or weed control at 125 g/ha (galium [8]) [%] | other results
1 | N#Cc1cccc(Oc2ncc(Cl)cn2)c1-n1cc(SC(F)(F)F)cn1 [Compound 134, 3-[(5-chloro-2-pyrimidinyl)oxy]-2-[4-(trifluoromethylthio)-1-pyrazolyl]benzonitrile] | 100 | 60 | 20 | 40 | 0 | 30 | 0 | 0 | 90 | 98 | 0 | 0 | 40 | 40 | 30 | 10 | 0 | 5 | 65 | 85 | Kochia plant response rating (kochia; 500 g ai/ha): 100; Ragweed plant response rating (ragweed; 500 g ai/ha): 80; Ryegrass, Italian plant response rating (Italian ryegrass [1]; 500 g ai/ha): 40; Barnyardgrass plant response rating (barnyardgrass [2]; 125 g ai/ha, 0 to 100 scale where 0 is no effect and 100 is complete control): 80; Plant response rating, Barnyardgrass (barnyardgrass [2]; [10]): 90; Plant response rating, Corn (corn [3]; [10]): 60; pest or weed control at 62 g/ha (galium [8]): 85%; plant injury at 16 g/ha (corn [9]): 5%; Corn plant response rating (crop injury, 0 = no effect, 100 = complete kill) at 125 g/ha (corn [9]): 5%; Corn plant response rating (crop injury, 0 = no effect, 100 = complete kill) at 62 g/ha (corn [9]): 10%; pest or weed control at 16 g/ha (lambsquarters): 5%; pest or weed control at 125 g/ha (lambsquarters): 65%; pest or weed control at 62 g/ha (lambsquarters): 75%; pest or weed control at 16 g/ha (pigweed): 75%; pest or weed control at 125 g/ha (pigweed): 85%; pest or weed control at 62 g/ha (pigweed): 85%; pest or weed control at 16 g/ha (waterhemp): 55%; pest or weed control at 125 g/ha (waterhemp): 85%; pest or weed control at 62 g/ha (waterhemp): 60%
2 | Fc1cccc(Oc2ncc(Cl)cn2)c1-n1cc(C(F)F)nn1 [Compound 141, 5-chloro-2-[2-[4-(difluoromethyl)-1H-1,2,3-triazol-1-yl]-3-fluorophenoxy]pyrimidine] | 100 | 100 | 80 | 60 | 45 | 100 | 100 | 98 | 100 | 100 | 98 | 5 | 80 | 90 | 20 | 0 | 40 | 5 | 90 | 100 | Plant response rating, Kochia (kochia; [12]): 100; Plant response rating, Ragweed (ragweed; [12]): 90; Plant response rating, Ryegrass, Italian (Italian ryegrass [1]; [12]): 30; pest or weed control at 31 g/ha (barnyardgrass [2]; Echinochloa crus-galli, post-emergence, 240 h, 31 g ai/ha, 0 to 100 scale, 0 no effect, 100 complete control, read-out: Plant response rating, Barnyardgrass): 60%; pest or weed control at 125 g/ha (barnyardgrass [2]; Echinochloa crus-galli, post-emergence, 240 h, 125 g ai/ha, 0 to 100 scale where 0 is no effect and 100 is complete control, read-out: Barnyardgrass plant response rating): 100%; Corn plant response rating (crop injury, 0 = no effect, 100 = complete kill) at 31 g/ha (corn [3]; Zea mays, post-emergence, 240 h, 31 g ai/ha, 0 to 100 scale, 0 no effect, 100 complete control): 30%; pest or weed control at 62 g/ha (galium [8]): 98%; plant injury at 16 g/ha (corn [9]): 5%; Corn plant response rating (crop injury, 0 = no effect, 100 = complete kill) at 125 g/ha (corn [9]): 20%; Corn plant response rating (crop injury, 0 = no effect, 100 = complete kill) at 62 g/ha (corn [9]): 5%; pest or weed control at 16 g/ha (lambsquarters): 85%; pest or weed control at 125 g/ha (lambsquarters): 100%; pest or weed control at 62 g/ha (lambsquarters): 100%; pest or weed control at 16 g/ha (pigweed): 90%; pest or weed control at 125 g/ha (pigweed): 98%; pest or weed control at 62 g/ha (pigweed): 100%; pest or weed control at 16 g/ha (waterhemp): 85%; pest or weed control at 125 g/ha (waterhemp): 100%; pest or weed control at 62 g/ha (waterhemp): 100%
